Entries after “also recorded” stand apart in the source; their conditions may differ. Read-outs that look alike come from different tables or passages of the source.
Assays:
[1] = test system: Salmonella typhimurium, Escherichia coli, and yeast cells; conditions: with and without metabolic activation; cited from earlier work
plasma TTR = plasma TTR (Homo sapiens, UniProt P02766); experiment: Drug efficacy/selectivity in human plasma (urea denaturation, western blot of monomeric TTR)
Description: The ability of a drug to stabilize the tetrameric form of TTR by binding to the hydrophobic hormone binding pockets at the dimer interface of the tetramer is directly correlated to the drug’s binding affinity.
The dissociation of plasma TTR was initiated by the addition of urea at a final concentration of 4.0 M. The dissociation to monomeric TTR was monitored by western blot and quantified with the ImageJ 2.0 software.
Briefly, plasma was buffered by the addition of 20 μL phosphate buffer from a 1 M stock solution to reach a final concentration of 20 mM, pH 7.4. […] To initiate the denaturation of the TTR tetramer, urea was added to a final concentration of 4 M followed by 18 h of incubation at 25°C. In the absence of a stabilizing ligand, this treatment causes dissociation and monomerization of the TTR tetramer. […] The monomeric band on the membrane was visualized by western blot according to standard protocols using a rabbit anti-TTR antibody (anti-prealbumin, DAKO) followed by a horseradish peroxidase-labeled antibody (anti-rabbit HRP, GE Healthcare). Nonspecific binding of antibodies was prevented by the addition of 5% fat-free powdered milk and 0.3% Tween-20. Enhanced chemiluminescence (ECL-prime, GE Healthcare) was used to visualize the bound antibodies. The bands containing the TTR monomer were quantified through densitometric analysis using the ImageJ 1.48 program.

WT-TTR = target: T1, WT-TTR (Homo sapiens, UniProt P02766); experiment: Turbidity assay of TTR aggregation at low pH; type: biochemical; conditions: WT-TTR 15 μM tetramer, compound 15 μM, pH 4.5, 72 h
T1 construct: made in house; host or cells: E. coli BL21
Description: (§1) Amyloid formation by TTR can be induced at low pH, which results in disruption of the tetramer and the subsequent formation of aggregates. This event can be monitored by a simple turbidity measurement.
(§2) Aggregation of WT-TTR and V30M-TTR was initiated by lowering the pH to 4.5 using a sodium-acetate/acetic acid buffer followed by incubation for 72 h. The percentage of aggregation relative to the control was monitored by measuring the turbidity at 400 nm.
(§3) In order to prevent microbial growth, all samples and controls were supplemented with 0.05% NaN3. Dissociation and subsequent aggregation of TTR was initiated by adding 50 mM sodium acetate at pH 4.5 and incubating at 37°C under agitation conditions. The formation of TTR aggregates was monitored by turbidity measurement at 400 nm in a TECAN Safire plate reader after incubating for 72 h. All experiments were performed five times.

Sprague—Dawley rats = test system: Sprague—Dawley rats; design: method as in PMID 25523853; conditions: prolonged daily oral 100, 300, or 1000 mg·kg−1·day−1; cited from earlier work
[2] = test system: SH-SY5Y neuroblastoma cells; experiment: TTR-mediated cytotoxicity, resazurin cell-viability assay; conditions: TTR 15 μM, compound 15 μM, 72 h
Description: The cytotoxic effect of TTR was monitored by a decrease in the conversion of resazurin to resorufin.
Cell viability was measured with a resazurin assay [46]. Data are reported as the mean cell viability ± the standard deviation (n = 3, ** p < 0.01; *** p < 0.001). […] The statistical significance was assessed using one-way ANOVA.
The human neuroblastoma cell line SH-SY5Y was obtained from the European Collection of Cell Cultures (Centre for Applied Microbiology and Research). SH-SY5Y cells were cultured according to a previous report [79] with minor modifications. The cells were grown in MEM and GlutaMax medium (Gibco) and supplemented with 10% (v/v) fetal bovine serum (Gibco), 100 units/mL penicillin, 100 μg/mL streptomycin (Gibco), and 1% non-essential amino acid solution (Gibco). Cultures were maintained in an incubator at 37°C with a humidified atmosphere of 5% CO2. […] All experiments were performed in triplicate.

TTR = target: T2, TTR (Homo sapiens, UniProt P02766); experiment: Isothermal titration calorimetry (ITC); type: binding
T2 construct: made in house; host or cells: E. coli BL21
Description: ITC experiments were performed using an Auto-iTC200 (MicroCal) at 25°C. […] For each experiment, 19 automated injections of 2 μL and a duration 0.8 s were performed with 300 s intervals between each injection and with a stirring speed of 1000 rpm. The titrations were done with high feedback and a filter period of 5 s and were repeated twice. Calorimetric data were plotted and fitted using the standard single-site binding model.

V30M-TTR = target: T3, V30M-TTR (Homo sapiens, UniProt P02766, V50M); experiment: Turbidity assay of TTR aggregation at low pH; type: biochemical; conditions: V30M-TTR 15 μM tetramer, compound 15 μM, pH 4.5, 72 h
T3 construct: made in house; host or cells: E. coli BL21
Description: as §1, §2, §3

[3] = cited from earlier work
[4] = design: method as in earlier work; conditions: steady state after 14 days of daily administration; cited from earlier work
[5] = cited from earlier work; for Serum concentration: after seven days, 12 hours after last dose
[6] = rats, single oral dose 300 mg/kg body weight

SMILES: CC(C)(c1cc(Br)c(O)c(Br)c1)c1cc(Br)c(O)c(Br)c1 [TBBPA, 2,2’,6,6’-tetrabromo-4,4’-isopropylidentediphenol]
- Genotoxicity in Ames tests [1]: negative results
- IC50 (plasma TTR; IC50 plasma, human plasma, 2 h incubation, 4 M urea, three independent experiments): 3300 ± 500 nM
- Saturation of the high-affinity binding site of TTR (plasma TTR; at a TBBPA plasma concentration of 5 μM, based on the IC50 value): 48%
- Stabilization of TTR tetramer in human plasma (plasma TTR; human plasma, 4 M urea): effectively stabilizes TTR at a stoichiometric ratio in plasma; also recorded: pronounced stabilizing effect on TTR is observed even at concentrations as low as 4 μM
- Aggregation of TTR at low pH (turbidity at 400 nm) (WT-TTR): efficiently prevents the aggregation
- Mortality and neuropathological ailments (Sprague—Dawley rats): did not result in increased mortality or the development of neuropathological ailments
- Cell survival in presence of cytotoxic TTR [2]: increased cell survival to essentially that of the untreated control cells
- Kd (TTR; 25°C, assuming independent binding sites (single-site model), read-out: Binding affinity to TTR (Kd)): 20 nM
- Kd (TTR; negative cooperativity, first site, read-out: Kd1): 6 nM
- Kd (TTR; read-out: Kd2, negative cooperativity, second site): 975 nM
- Aggregation of TTRVal30Met at low pH (turbidity at 400 nm) (V30M-TTR): efficiently prevents the aggregation
- Oral bioavailability ([3]; animals, oral intake, compared to tafamidis and diflunisal): low bioavailability
- Half-lives ([3]; oral 200, 500 and 1000 mg/kg): 7.5 to 9.5 h
- Half-life [3, 6]: around 13 h
- Time of maximal serum concentration [3, 6]: 3 h
- Elimination half-life ([3]; single oral dose 250 mg/kg body weight, 14C-TBBPA, non-compartmental model): around 4.5 h
- Time of maximal plasma concentration post-dose ([3]; single oral dose 250 mg/kg body weight, 14C-TBBPA): 127 min

SMILES: O=C(O)c1ccc2nc(-c3cc(Cl)cc(Cl)c3)oc2c1 [Tafamidis, tafamidis]
- Saturation level of TTR (plasma TTR; from IC50 around 5 μM and tafamidis plasma concentration 3.5–8.5 μM, TTR 4 μM): 31–56%
- Aggregation of TTR at low pH (turbidity at 400 nm) (WT-TTR): prevents the aggregation
- Clinically beneficial plasma concentration [4]: 3.5 to 8.5 µM
- Cell survival in presence of cytotoxic TTR [2]: increased cell survival to essentially that of the untreated control cells
- Aggregation of TTRVal30Met at low pH (turbidity at 400 nm) (V30M-TTR): prevents the aggregation

SMILES: O=C(O)c1cc(-c2ccc(F)cc2F)ccc1O [Diflunisal, diflunisal]
- Aggregation of TTR at low pH (turbidity at 400 nm) (WT-TTR): prevents the aggregation
- Serum concentration ([5]; 250 mg twice per day): 145 µM
- Serum concentration ([5]; 500 mg twice per day): 420 µM
- Bioavailability ([5]; oral administration): good
- Cell survival in presence of cytotoxic TTR [2]: increased cell survival to essentially that of the untreated control cells
- Aggregation of TTRVal30Met at low pH (turbidity at 400 nm) (V30M-TTR): prevents the aggregation

Source: article PMC4836675, “Tetrabromobisphenol A Is an Efficient Stabilizer of the Transthyretin Tetramer” (PLoS ONE, 2016)
